Measured values as given in ChEMBL document CHEMBL1156522, “Lateral compartmentalization of T cell receptor versus CD45 by galectin-N-glycan binding and microfilaments coordinate basal and activation signaling” (J Biol Chem, 2007).
Calls of active or inactive are those of the source.

Key:
Jurkat [1] = assay: Reduction of CD45 co-localization with GM1-enriched microdomain in human Jurkat T cells after 3 days; assay type: functional, cell-based
Jurkat [2] = assay: Induction of Nck protein binding to TCR complex in human Jurkat T cells by immunoprecipitation; assay type: cell-based
[3] = molecular target: Proto-oncogene tyrosine-protein kinase LCK (Mus musculus) (UniProt P06240); assay: Reduction of Lck Tyr394 phosphorylation in resting C57BL/6 mouse T cells at 20 uM by Western blot; assay type: cell-based; conditions: T-cell
Proto-oncogene tyrosine-protein kinase LCK (Mus musculus), sequence (P06240 2-509 limits assumed): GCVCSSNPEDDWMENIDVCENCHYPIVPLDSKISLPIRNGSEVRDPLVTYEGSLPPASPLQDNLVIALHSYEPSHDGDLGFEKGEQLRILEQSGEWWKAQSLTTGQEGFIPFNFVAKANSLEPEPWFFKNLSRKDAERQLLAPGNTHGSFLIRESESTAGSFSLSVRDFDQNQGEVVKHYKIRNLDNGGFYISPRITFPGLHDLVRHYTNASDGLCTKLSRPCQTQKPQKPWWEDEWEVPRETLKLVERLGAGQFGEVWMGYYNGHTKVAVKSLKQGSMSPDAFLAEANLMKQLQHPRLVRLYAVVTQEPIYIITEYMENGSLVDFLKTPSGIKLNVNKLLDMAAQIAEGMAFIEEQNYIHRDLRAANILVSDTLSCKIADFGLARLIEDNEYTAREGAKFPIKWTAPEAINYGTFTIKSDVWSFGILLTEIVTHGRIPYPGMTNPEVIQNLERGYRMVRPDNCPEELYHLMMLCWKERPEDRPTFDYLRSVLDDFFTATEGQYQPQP

[4] = molecular target: Proto-oncogene tyrosine-protein kinase LCK (Mus musculus) (UniProt P06240); assay: Reversal of reduction of Lck Tyr394 phosphorylation in resting C57BL/6 mouse T cells at 20 uM by Western blot; assay type: cell-based; conditions: T-cell
T-cell [5] = assay: Effect on CD45 distribution within GM1-enriched microdomain in C57BL/6 mouse Mgat5 expressing T cells pretreated at 20 uM; assay type: functional, cell-based
T-cell [6] = assay: Effect on TCR distribution within GM1-enriched microdomain in C57BL/6 mouse Mgat5 expressing T cells pretreated at 20 uM; assay type: functional, cell-based
T-cell [7] = assay: Effect on CD4 distribution within GM1-enriched microdomain in C57BL/6 mouse Mgat5 expressing T cells pretreated at 20 uM; assay type: functional, cell-based
[8] = molecular target: T1, Tyrosine-protein phosphatase non-receptor type 1 (Homo sapiens, UniProt P18031); assay: Inhibition of protein tyrosine phosphatase N1 phosphorylation
T1 sequence (P18031 whole entry): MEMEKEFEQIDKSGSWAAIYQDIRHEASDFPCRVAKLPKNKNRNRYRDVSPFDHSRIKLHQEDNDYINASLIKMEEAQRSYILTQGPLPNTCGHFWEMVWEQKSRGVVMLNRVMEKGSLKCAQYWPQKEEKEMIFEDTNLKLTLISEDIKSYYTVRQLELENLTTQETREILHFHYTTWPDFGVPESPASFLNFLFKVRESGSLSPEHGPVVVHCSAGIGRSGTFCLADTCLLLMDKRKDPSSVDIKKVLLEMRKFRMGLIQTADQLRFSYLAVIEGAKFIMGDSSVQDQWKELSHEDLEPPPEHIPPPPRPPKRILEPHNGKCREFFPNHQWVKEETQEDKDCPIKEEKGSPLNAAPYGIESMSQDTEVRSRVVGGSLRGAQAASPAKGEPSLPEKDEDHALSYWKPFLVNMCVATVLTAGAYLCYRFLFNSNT

[9] = molecular target: T2, Tyrosine-protein kinase Lck (Homo sapiens, UniProt P06239); assay: Inhibition of Lck phosphorylation
Target sequence in this assay (P06239 whole entry): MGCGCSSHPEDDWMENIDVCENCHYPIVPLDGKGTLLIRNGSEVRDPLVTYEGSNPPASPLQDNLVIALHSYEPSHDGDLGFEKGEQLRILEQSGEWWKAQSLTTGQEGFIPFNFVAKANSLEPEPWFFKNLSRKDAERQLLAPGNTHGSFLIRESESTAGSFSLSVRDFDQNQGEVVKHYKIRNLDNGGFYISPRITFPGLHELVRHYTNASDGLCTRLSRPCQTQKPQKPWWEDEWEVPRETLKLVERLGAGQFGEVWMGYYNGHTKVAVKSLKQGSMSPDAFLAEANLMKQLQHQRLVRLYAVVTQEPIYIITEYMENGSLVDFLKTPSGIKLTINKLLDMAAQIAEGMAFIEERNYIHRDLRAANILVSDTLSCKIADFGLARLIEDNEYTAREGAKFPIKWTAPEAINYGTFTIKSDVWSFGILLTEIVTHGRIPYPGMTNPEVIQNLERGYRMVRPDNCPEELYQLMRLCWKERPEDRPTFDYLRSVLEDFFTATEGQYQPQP

[10] = molecular target: Tyrosine-protein phosphatase non-receptor type 13 (Homo sapiens, UniProt Q12923); assay: Inhibition of protein tyrosine phosphatase N13 phosphorylation
Tyrosine-protein phosphatase non-receptor type 13, sequence (Q12923 whole entry): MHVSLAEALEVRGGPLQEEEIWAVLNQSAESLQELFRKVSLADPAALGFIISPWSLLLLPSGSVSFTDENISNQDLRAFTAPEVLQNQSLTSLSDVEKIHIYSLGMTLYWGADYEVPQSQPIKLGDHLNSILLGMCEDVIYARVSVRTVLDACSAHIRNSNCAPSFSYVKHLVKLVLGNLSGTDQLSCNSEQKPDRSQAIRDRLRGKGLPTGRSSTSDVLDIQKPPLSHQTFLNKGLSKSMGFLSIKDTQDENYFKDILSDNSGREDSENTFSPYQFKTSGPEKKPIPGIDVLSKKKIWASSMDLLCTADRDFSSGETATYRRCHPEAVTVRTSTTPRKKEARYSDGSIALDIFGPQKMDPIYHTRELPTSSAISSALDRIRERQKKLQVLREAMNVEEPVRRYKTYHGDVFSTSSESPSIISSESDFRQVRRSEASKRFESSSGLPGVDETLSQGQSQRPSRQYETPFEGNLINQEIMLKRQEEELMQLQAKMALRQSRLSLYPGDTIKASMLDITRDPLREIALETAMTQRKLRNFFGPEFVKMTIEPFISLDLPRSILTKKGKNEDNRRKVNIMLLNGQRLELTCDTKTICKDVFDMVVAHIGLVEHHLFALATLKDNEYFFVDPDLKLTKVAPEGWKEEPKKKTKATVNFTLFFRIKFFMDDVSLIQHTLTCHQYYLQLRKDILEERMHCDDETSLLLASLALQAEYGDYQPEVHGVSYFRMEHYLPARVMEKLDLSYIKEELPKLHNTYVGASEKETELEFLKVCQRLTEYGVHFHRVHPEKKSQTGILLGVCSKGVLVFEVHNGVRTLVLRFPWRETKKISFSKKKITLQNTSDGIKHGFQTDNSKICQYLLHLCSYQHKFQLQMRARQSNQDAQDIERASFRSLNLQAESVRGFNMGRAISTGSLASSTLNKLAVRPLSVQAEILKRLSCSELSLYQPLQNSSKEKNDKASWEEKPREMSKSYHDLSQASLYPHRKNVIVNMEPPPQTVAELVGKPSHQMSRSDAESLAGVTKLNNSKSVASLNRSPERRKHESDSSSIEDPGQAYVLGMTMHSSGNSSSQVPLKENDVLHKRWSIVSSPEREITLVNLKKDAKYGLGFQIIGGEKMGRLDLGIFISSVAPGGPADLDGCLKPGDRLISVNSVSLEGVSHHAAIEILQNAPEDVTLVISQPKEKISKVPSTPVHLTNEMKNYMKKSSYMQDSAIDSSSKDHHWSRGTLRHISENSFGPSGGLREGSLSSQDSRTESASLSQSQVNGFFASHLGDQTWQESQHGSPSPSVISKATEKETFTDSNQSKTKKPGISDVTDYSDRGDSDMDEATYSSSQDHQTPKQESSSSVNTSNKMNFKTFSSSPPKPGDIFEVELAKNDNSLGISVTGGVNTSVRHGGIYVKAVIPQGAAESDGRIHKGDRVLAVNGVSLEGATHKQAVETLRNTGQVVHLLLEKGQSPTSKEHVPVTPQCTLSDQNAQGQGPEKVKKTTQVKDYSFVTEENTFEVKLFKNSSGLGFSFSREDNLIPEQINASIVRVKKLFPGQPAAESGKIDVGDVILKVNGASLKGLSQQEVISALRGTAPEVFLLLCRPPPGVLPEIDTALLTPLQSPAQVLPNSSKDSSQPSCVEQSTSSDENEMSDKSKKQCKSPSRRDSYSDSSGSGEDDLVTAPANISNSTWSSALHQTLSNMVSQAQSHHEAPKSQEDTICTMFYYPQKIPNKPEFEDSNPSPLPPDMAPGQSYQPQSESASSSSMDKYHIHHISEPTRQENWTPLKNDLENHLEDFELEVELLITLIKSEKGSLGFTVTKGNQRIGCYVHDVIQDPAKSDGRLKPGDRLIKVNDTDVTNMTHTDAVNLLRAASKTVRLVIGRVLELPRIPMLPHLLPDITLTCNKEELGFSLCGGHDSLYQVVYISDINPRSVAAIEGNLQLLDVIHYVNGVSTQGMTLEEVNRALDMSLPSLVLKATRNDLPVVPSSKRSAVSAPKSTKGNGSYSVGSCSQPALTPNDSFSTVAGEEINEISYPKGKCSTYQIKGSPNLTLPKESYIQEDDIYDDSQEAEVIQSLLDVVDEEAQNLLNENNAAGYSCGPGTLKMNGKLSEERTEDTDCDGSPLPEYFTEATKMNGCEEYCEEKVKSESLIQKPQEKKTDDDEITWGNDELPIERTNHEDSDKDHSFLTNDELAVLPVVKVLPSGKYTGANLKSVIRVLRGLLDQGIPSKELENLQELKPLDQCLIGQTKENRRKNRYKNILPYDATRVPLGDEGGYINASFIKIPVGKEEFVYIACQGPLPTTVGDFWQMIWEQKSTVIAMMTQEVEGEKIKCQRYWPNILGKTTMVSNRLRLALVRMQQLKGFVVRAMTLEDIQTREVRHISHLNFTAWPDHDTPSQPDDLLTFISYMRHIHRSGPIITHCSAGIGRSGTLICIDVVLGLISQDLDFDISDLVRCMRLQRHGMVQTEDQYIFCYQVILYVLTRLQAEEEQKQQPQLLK

T-cell [11] = assay: Increase T cell receptor co-localization to GM1-enriched microdomain in C57BL/6 mouse T cells pretreated for 20 mins; assay type: functional, cell-based
[12] = molecular target: T2, Tyrosine-protein kinase Lck; assay: Induction of Lck Tyr394 phosphorylation in TCRbeta deficient human Jurkat T J.RT3-T3.5 cells at 5 uM after 3 days by Western blot analysis; assay type: cell-based
Target sequence in this assay (P06239 2-509 limits assumed): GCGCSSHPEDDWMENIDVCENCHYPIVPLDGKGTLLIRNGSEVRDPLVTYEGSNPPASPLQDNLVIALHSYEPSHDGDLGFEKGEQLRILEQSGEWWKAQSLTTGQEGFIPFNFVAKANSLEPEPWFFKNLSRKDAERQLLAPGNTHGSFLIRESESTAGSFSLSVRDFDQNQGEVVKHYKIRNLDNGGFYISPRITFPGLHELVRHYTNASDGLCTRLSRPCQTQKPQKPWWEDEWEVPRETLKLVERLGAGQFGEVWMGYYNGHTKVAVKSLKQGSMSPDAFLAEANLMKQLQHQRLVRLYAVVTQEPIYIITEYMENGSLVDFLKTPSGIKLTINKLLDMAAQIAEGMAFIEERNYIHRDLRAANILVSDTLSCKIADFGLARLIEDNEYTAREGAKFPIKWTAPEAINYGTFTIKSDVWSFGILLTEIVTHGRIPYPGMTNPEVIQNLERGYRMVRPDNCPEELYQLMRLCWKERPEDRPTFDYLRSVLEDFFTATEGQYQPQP

[13] = molecular target: T2, Tyrosine-protein kinase Lck; assay: Induction of Lck Tyr394 phosphorylation in CD45 deficient human Jurkat T DJ45.01 cells at 5 uM after 3 days by Western blot analysis; assay type: cell-based
Target sequence in this assay (P06239 2-509 limits assumed): as above

[14] = molecular target: T3, Linker for activation of T-cells family member 1 (Homo sapiens) (UniProt O43561); assay: Increase in LAT phosphorylation in anti-CD3-coated microbeads-stimulated CD45 deficient human J45.01 cells after 3 days
T3 sequence (whole entry): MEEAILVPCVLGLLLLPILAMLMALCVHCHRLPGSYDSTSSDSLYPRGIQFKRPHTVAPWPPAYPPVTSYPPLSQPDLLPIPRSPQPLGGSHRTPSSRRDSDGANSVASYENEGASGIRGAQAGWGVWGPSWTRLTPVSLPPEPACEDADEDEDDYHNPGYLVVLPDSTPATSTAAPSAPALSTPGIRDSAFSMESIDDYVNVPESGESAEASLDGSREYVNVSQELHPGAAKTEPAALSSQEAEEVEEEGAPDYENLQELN

Homo sapiens [15] = organism: Homo sapiens; assay: Increase in CD4 galectin lattice partition to GM1-enriched microdomain in CD45 deficient human J45.01 cells by densitometry; assay type: functional
Homo sapiens [16] = organism: Homo sapiens; assay: Increase in ZAP70 expression in GM1-enriched microdomain of Lck defient human JCaM1.6 cells by Western blot; assay type: functional
T-cell [17] = assay: Reduction of CD45 co-localization with GM1-enriched microdomain in resting C57BL/6 mouse T cells pretreated for 20 mins; assay type: functional, cell-based
Jurkat [18] = assay: Increase in CD4 galectin lattice partition to GM1-enriched microdomain in human Jurkat T cells by densitometry; assay type: functional, cell-based
J-RT3-T3-5 [19] = assay: Increase in CD45 galectin lattice partition to GM1-enriched microdomain TCRbeta deficient human J.RT3-T3.5 cells by densitometry; assay type: functional
[20] = molecular target: T2, Tyrosine-protein kinase Lck; assay: Induction of Lck Tyr394 phosphorylation in human Jurkat T cells at 5 uM after 3 days by Western blot analysis; assay type: cell-based
Target sequence in this assay (P06239 2-509 limits assumed): as the sequence (P06239 2-509 limits assumed) above

[21] = molecular target: T4, Tyrosine-protein kinase ZAP-70 (Homo sapiens) (UniProt P43403); assay: Induction of ZAP70 phosphorylation in human Jurkat T cells at 5 uM after 3 days by Western blot analysis; assay type: cell-based
T4 sequence (whole entry): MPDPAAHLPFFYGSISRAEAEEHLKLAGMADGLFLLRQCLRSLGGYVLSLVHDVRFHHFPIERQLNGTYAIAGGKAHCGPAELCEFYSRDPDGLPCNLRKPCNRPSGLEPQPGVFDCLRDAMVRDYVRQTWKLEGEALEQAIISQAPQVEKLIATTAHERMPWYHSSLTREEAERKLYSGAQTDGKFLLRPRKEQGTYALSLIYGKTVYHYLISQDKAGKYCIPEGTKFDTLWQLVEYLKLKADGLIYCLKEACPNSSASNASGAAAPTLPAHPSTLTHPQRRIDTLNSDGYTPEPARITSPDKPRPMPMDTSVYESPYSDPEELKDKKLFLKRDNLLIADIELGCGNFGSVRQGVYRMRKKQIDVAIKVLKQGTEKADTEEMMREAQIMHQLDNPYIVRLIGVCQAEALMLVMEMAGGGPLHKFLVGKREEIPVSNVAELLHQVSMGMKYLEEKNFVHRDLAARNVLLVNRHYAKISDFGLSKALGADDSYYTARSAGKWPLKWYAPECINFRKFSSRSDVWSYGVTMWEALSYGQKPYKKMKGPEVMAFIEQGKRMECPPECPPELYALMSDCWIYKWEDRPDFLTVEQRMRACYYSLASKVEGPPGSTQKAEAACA

[22] = molecular target: T4, Tyrosine-protein kinase ZAP-70 (Homo sapiens); assay: Increase in Zap70 phosphorylation in anti-CD3-coated microbeads-stimulated CD45 deficient human J45.01 cells after 3 days
Jurkat [23] = assay: Increase in TCR-CD3 galectin lattice partition to GM1-enriched microdomain in human Jurkat T cells by densitometry; assay type: functional, cell-based
Jurkat [24] = assay: Enhancement of Lck localization within GM1-enriched microdomain in human Jurkat T cells by Western blot; assay type: functional, cell-based
[25] = molecular target: T3, Linker for activation of T-cells family member 1 (Homo sapiens); assay: Induction of LAT phosphorylation in human Jurkat T cells at 5 uM after 3 days by Western blot analysis; assay type: cell-based
J-RT3-T3-5 [26] = assay: Increase in CD4 galectin lattice partition to GM1-enriched microdomain TCRbeta deficient human J.RT3-T3.5 cells by densitometry; assay type: functional
Jurkat [27] = assay: Increase in TCR-CD3 galectin lattice partition to GM1-enriched microdomain in CD4 deficient human Jurkat D1. 1 cells by densitometry; assay type: functional, cell-based
Jurkat [28] = assay: Increase in CD45 galectin lattice partition to GM1-enriched microdomain in human Jurkat T cells by densitometry; assay type: functional, cell-based
Homo sapiens [29] = organism: Homo sapiens; assay: Increase in TCR-CD3 galectin lattice partition to GM1-enriched microdomain in CD45 deficient human J45.01 cells by densitometry; assay type: functional
Jurkat [30] = assay: Increase in CD45 galectin lattice partition to GM1-enriched microdomain in CD4 deficient human Jurkat D1. 1 cells by densitometry; assay type: functional, cell-based
T-cell [31] = assay: Increase CD4 co-localization to GM1-enriched microdomain in C57BL/6 mouse T cells pretreated for 20 mins; assay type: functional, cell-based
J-RT3-T3-5 [32] = assay: Increase in TCR-CD3 galectin lattice partition to GM1-enriched microdomain TCRbeta deficient human J.RT3-T3.5 cells by densitometry; assay type: functional
Jurkat [33] = assay: Reduction of CD4 surface expression in Lck deficient human Jurkat T cells by flow cytometry; assay type: functional, cell-based
J-RT3-T3-5 [34] = assay: Enhancement of Lck localization within GM1-enriched microdomain in TCRbeta deficient human J.RT3-T3.5 cells by Western blot; assay type: functional
Homo sapiens [35] = organism: Homo sapiens; assay: Enhancement of Lck localization within GM1-enriched microdomain in CD45 deficient human J45.01 cells by Western blot; assay type: functional
Jurkat [36] = assay: Enhancement of Lck localization within GM1-enriched microdomain in CD4 deficient human Jurkat D1. 1 cells by Western blot; assay type: functional, cell-based
Homo sapiens [37] = organism: Homo sapiens; assay: Increase in CD45 galectin lattice partition to GM1-enriched microdomain in CD45 deficient human J45.01 cells by densitometry; assay type: functional
Jurkat [38] = assay: Increase in ZAP70 expression in GM1-enriched microdomain of human Jurkat T cells by Western blot; assay type: functional, cell-based
[39] = molecular target: T2, Tyrosine-protein kinase Lck; assay: Induction of Lck Tyr394 phosphorylation in CD4 deficient human Jurkat T D1.1 cells at 5 uM after 3 days by Western blot analysis; assay type: cell-based
Target sequence in this assay (P06239 2-509 limits assumed): as the sequence (P06239 2-509 limits assumed) above

LACTOSE, ANHYDROUS
active: Activity (Jurkat [1]) | Activity (Jurkat [2])

C/C1=C/C(=O)O[C@@H]2C[C@@H](CC[C@H](C)/C=C\C=C\CC1)O[C@@](O)([C@@H]1CSC(=O)N1)C2
active: Activity [3] | Activity [4]

CC(C)(C)n1nc(-c2ccc(Cl)cc2)c2c(N)ncnc21
inactive: Activity (T-cell [5]) | Activity (T-cell [6]) | Activity (T-cell [7])

CC(C)(C)C(=O)Nc1ccc2c(c1)C(=O)C(=O)c1ccccc1-2
3.8 µM: IC50 [9]
> 30 µM: IC50 [8] | IC50 [10]

O[C@H]1[C@H]2[C@H](O)CCCN2C[C@H]1O
active: Activity (T-cell [11]) | Activity (Jurkat [2]) | Activity (T-cell [17]) | Activity (Jurkat [18]) | Activity (J-RT3-T3-5 [19]) | Activity [20] | Activity [21] | Activity (Jurkat [23]) | Activity (Jurkat [24]) | Activity [25] | Activity (J-RT3-T3-5 [26]) | Activity (Jurkat [27]) | Activity (Jurkat [28]) | Activity (Homo sapiens [29]) | Activity (Jurkat [30]) | Activity (T-cell [31]) | Activity (J-RT3-T3-5 [32]) | Activity (Jurkat [33]) | Activity (Homo sapiens [35]) | Activity (Jurkat [36]) | Activity (Homo sapiens [37]) | Activity (Jurkat [38])
inactive: Activity [12] | Activity [13] | Activity [14] | Activity (Homo sapiens [15]) | Activity (Homo sapiens [16]) | Activity [22] | Activity (J-RT3-T3-5 [34]) | Activity [39]
